Data on 1 molecule can be found in patent publication US10016414B2, “Modulation of ubiquitination of synaptic proteins for the treatment of neurodegenerative and psychiatric disorders” (UNIVERSITY OF MASSACHUSETTS, priority 2010, dated 2018).

One assay has as its system PSD-95 ubiquitination. Put plainly: PSD-95 ubiquitination in acute forebrain slices (PSD-95 immunoprecipitation, ubiquitin/FK1/FK2 immunoblot). It is filed as cell-based, mouse. The note with it: roscovitine 10 μM, 45 min, acute mouse forebrain slices.
Assay [1] deals with colocalization of Mdm2 with PSD-95. Kind of assay: Colocalization of Mdm2 with PSD-95 puncta in cultured hippocampal neurons (immunocytochemistry). It is filed as cell-based, rat. The note with it: roscovitine 10 μM, 45 min; control 100%±24.8%; n=4; mean±SEM. The method, then:
Representative confocal images from each condition are shown; Mdm2 (green) and PSD-95 (red) (scale bars, 10 μm). […] The number of costained puncta, as a percentage of total PSD-95 puncta, are expressed as a percentage of the number for DMSO controls.
(§1) Dissociated hippocampal cultures were prepared from E17-E18 rat brains as described previously (Zhang et al., 2008). Hippocampal neurons were plated on coverslips coated with poly-D-lysine and laminin at a density of 6600/cm2 and grown in Neurobasal medium supplemented with B27 and GlutaMax (Invitrogen) for 17-21 days in vitro (DIV). […] Images from each experiment were thresholded using identical values and analyzed by MetaMorph software. The colocalization was expressed as mean±S.E.M. and statistically compared using Student's t-test.
Mdm2 has been identified as the ubiquitin ligase for PSD-95 in ubiquitination assays and in transfected Mdm2 knockout mouse embryonic fibroblasts (Colledge et al., 2003). […] To investigate whether Cdk5 regulates the interaction between Mdm2 and PSD-95, PSD-95 immunoprecipitated from brain lysates was analyzed in p35 knockout mice and wild-type littermates by immunoblotting with an Mdm2 antibody (FIG. 2A). […]

Another assay has as its system PSD-95 protein levels. Kind of assay: PSD-95 protein levels in acute forebrain slices (immunoblot, normalized to actin). It is filed as cell-based, mouse. Conditions: roscovitine 10 μM, 45 min; control 100%±15.8%; n=3; p>0.5. The method, then: PSD-95 immunoreactivity was normalized to that of actin and expressed as a percentage of DMSO control.
Brains of adult p35 knockout mice and control littermates were gifts of Dr. Li-Huei Tsai (MIT). Brain lysates were prepared according to Zhang et al., (2008). Briefly, brains (without cerebellum) were first homogenized and lysed in 1% deoxycholate (DOC) lysis buffer (150 mM NaCl, 1% DOC, 50 mM Tris, pH 8.8), to which an equal volume of modified radioimmunoprecipitation assay (RIPA) buffer was added (150 mM NaCl, 1 mM ethylenediaminetetraacetic acid (EDTA), 1% Triton X-100, 0.1% SDS, 50 mM Tris/HCl pH 7.4) (Kalia et al., 2006). […] Protein concentrations of the lysates were determined by Detergent Compatible Protein Assay (Bio-Rad) and lysates (inputs) were analyzed by western blot to determine whether similar amounts of proteins were used in the experiments. […] Western blots were visualized by enhanced chemiluminescence (ECL, Amersham) and immunoreactive bands were digitally scanned and quantified with ImageJ software (NIH). Values were expressed as mean±S.E.M. and statistically compared using Student's t-test.
Acute forebrain slices were prepared as previously described (Patel et al., 2003; Zhang et al., 2008). […] Values were expressed as mean±S.E.M. and statistically compared using analysis of variance (ANOVA). […]

Assay [2] concerns colocalization of β-adaptin with PSD-95. Kind of assay: Colocalization of β-adaptin with PSD-95 puncta in cultured hippocampal neurons. It is filed as cell-based, rat. Conditions: roscovitine 10 μM, 45 min; control 100%±15.6%; n=5; mean±SEM. The method, then:
C. […] Representative confocal images from each condition are shown; β-adaptin and PSD-95 (scale bars, 10 μm). […] The number of costained puncta, as a percentage of total number of PSD-95 puncta, is expressed as a percentage of the number for DMSO control.
as §1
To assess whether PSD-95 monoubiquitination correlates with increased PSD-95 interaction with AP-2 in vivo, p35 knockout mice were analyzed, which have increased PSD-95 monoubiquitination. PSD-95 immunoprecipitated from brain lysates of p35 knockout and wildtype littermates was analyzed by β-adaptin immunoblot (FIG. 4B).

Turning to `CC[C@H](CO)Nc1nc(NCc2ccccc2)c2ncn(C(C)C)c2n1` [roscovitine], in the assay with PSD-95 ubiquitination, the “increase in PSD-95 ubiquitination” value is “more than 2 fold” and the “kind of PSD-95 ubiquitination (FK2 immunoreactive, FK1 not)” value was “increases PSD-95 monoubiquitination on multiple lysines”. Besides, the “ubiquitination of PSD-95 (ubiquitin immunoreactivity normalized to immunoprecipitated PSD-95, percentage of DMSO control)” value in the assay with PSD-95 ubiquitination (control 100%±54.5%, n=4, mean±SEM) is 274.6%±71.6%. Moreover, in assay [1], the “puncta positive for both PSD-95 and Mdm2 (percentage of DMSO control)” value is reported as 149%±27.4%. In addition, in the assay on PSD-95 protein levels, the “PSD-95 protein levels (normalized to actin, percentage of DMSO control)” value is on record as 103.7%±18.7%. Moreover, in assay [2], the “puncta positive for both PSD-95 and β-adaptin (percentage of DMSO control)” value is 192.5%±19%.
